Data as given in patent US20240409585A1, “MACROCYCLIC IMMUNOMODULATORS” (priority 2021, published 2024).
Numbered stars: 1 amine (or outer) side, 2 acyl side, 3 side chain; on linkers, the order of the positions; unused ones are H or OH. Bridge positions count the residues as written; N and C are the ends. Square brackets hold non-standard residues; d marks the D form. Peptide text beside a SMILES is read from it. * marks the point of attachment. ξ: configuration not given here. Bip(4'-COOH) = N[C@@H](Cc1ccc(-c2ccc(C(=O)O)cc2)cc1)C(=O)O; X12 = O=C(NCc1cccc(C[C@H](N[*:1])C(=O)[*:2])c1)c1ccncc1; Ala(morpholin-4-yl) = N[C@@H](CN1CCOCC1)C(=O)O; Phe(4-CONH2) = NC(=O)c1ccc(C[C@H](N)C(=O)O)cc1; Phe(4-COOH) = N[C@@H](Cc1ccc(C(=O)O)cc1)C(=O)O; Bpa = N[C@@H](Cc1ccc(C(=O)c2ccccc2)cc1)C(=O)O; X5 = CS(=O)(=O)NC(=O)C[C@H](N[*:1])C(=O)[*:2]; Bip = N[C@@H](Cc1ccc(-c2ccccc2)cc1)C(=O)O; Phe(3-NH2) = Nc1cccc(C[C@H](N)C(=O)O)c1; Phe(3-F) = N[C@@H](Cc1cccc(F)c1)C(=O)O; Phe(3-I) = N[C@@H](Cc1cccc(I)c1)C(=O)O; Phe(3-Me) = Cc1cccc(C[C@H](N)C(=O)O)c1; Val(3-OH) = CC(C)(O)[C@H](N)C(=O)O; Cha = N[C@@H](CC1CCCCC1)C(=O)O; Carboxymethyl = O=C(O)C*; NMeA = CN[C@@H](C)C(=O)O; Nle = CCCC[C@H](N)C(=O)O; Orn = NCCC[C@H](N)C(=O)O; Dab = NCC[C@H](N)C(=O)O; ξC = NC(CS)C(=O)O

Legend:
[1] = target: T1, PE-labeled human PD-L1-Ig binding to Jurkat cell line over-expressing human PD-1 (Jurkat-PD-1) (Homo sapiens, UniProt Q15116); experiment: Jurkat-PD-1 Cell Binding High-Content Screening Assay (CBA): Method 1; details: Jurkat-PD-1 cells, PE-labeled PD-L1-Ig
T1 construct: expressed in transfected cells; host or cells: Jurkat
T1 sequence (Q15116 25-288): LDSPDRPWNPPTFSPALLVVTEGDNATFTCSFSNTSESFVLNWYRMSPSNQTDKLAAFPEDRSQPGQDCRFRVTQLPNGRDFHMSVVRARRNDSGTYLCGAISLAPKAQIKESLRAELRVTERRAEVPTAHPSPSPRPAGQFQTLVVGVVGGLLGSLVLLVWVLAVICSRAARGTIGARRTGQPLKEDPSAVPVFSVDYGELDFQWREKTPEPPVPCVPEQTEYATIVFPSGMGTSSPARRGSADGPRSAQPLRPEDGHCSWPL

[2] = target: T1, PE-labeled human PD-L1-Ig binding to Jurkat cell line over-expressing human PD-1 (Jurkat-PD-1); experiment: Jurkat-PD-1 Cell Binding High-Content Screening Assay (CBA): Method 2 (presence and absence of tween-20); details: Jurkat-PD-1 cells, PE-labeled PD-L1-Ig 20 nM, presence or absence of tween-20 not given
In short: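 Compounds incubated with Jurkat cells overexpressing human PD-1 for 2 h at 37° C, tested with and without tween-20 to flag aggregation. PE-labeled human PD-L1-Ig (20 nM final) added in DMEM/10% FCS; binding read by high-content imaging.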

[3] = head μM, read-out: CBA Method 2 μM

| Compound | IC50 ([1]; μM, read-out: CBA Method 1 μM) [µM] | IC50 [2, 3] [µM] | IC50 ([1]; nM, read-out: CBA Method 1) [µM] | IC50 ([2]; nM, read-out: CBA Method 2) [µM] |
| --- | --- | --- | --- | --- |
| Cc1cccc(C[C@@H]2NC(=O)[C@H](CC(=O)O)NC(=O)[C@H](Cc3ccc(C(=O)O)cc3)NC(=O)[C@H](CC(C)C)NC(=O)CSC[C@@H](C(=O)N[C@@H](CCN)C(N)=O)NC(=O)[C@H](CCCN)NC(=O)[C@H](C(C)C)NC(=O)[C@H](Cc3cccc(F)c3)NC(=O)[C@H](CCN)NC(=O)[C@@H](CC(C)C)NC(=O)[C@H](C)N(C)C(=O)[C@H](CCC(N)=O)NC(=O)[C@H](Cc3ccc(-c4ccccc4)cc3)NC(=O)[C@H](Cc3ccc(-c4ccc(C(=O)O)cc4)cc3)NC2=O)c1 [Example 5064] ({CH2CO}-L[Phe(4-COOH)]D[Phe(3-Me)][Bip(4'-COOH)][Bip]Q[NMeA][dL][Dab][Phe(3-F)]V[Orn]C[Dab]-NH2; thioether N-14) | 0.0544 | 0.0348 |  |  |
| CC(C)C[C@H]1NC(=O)[C@H](C)N(C)C(=O)[C@H](CCC(N)=O)NC(=O)[C@H](Cc2ccc(-c3ccccc3)cc2)NC(=O)[C@H](Cc2cccc(CNC(=O)c3ccncc3)c2)NC(=O)[C@H](Cc2cccc(I)c2)NC(=O)[C@H](CC(=O)O)NC(=O)[C@H](Cc2ccc(OCC(=O)O)cc2)NC(=O)[C@H](CN2CCOCC2)NC(=O)CSC[C@@H](C(=O)N[C@@H](CCN)C(N)=O)NC(=O)[C@H](CCCN)NC(=O)[C@H](C(C)C)NC(=O)[C@H](CC2CCCCC2)NC(=O)[C@H](CCN)NC1=O [Example 5020] ({CH2CO}-[Ala(morpholin-4-yl)]Y(Carboxymethyl)D[Phe(3-I)][X12][Bip]Q[NMeA][dL][Dab][Cha]V[Orn]C[Dab]-NH2; thioether N-14) |  |  | 0.0058 | 0.005 |
| Cc1cccc(C[C@@H]2NC(=O)[C@H](CC(=O)O)NC(=O)[C@H](Cc3ccc(OCC(=O)O)cc3)NC(=O)[C@H](CN3CCOCC3)NC(=O)CSCC(C(=O)N[C@@H](CCN)C(N)=O)NC(=O)[C@H](CCCN)NC(=O)[C@H](C(C)C)NC(=O)[C@H](CC3CCCCC3)NC(=O)[C@H](CCN)NC(=O)[C@@H](CC(C)C)NC(=O)[C@H](C)N(C)C(=O)[C@H](CCC(N)=O)NC(=O)[C@H](Cc3ccc(-c4ccccc4)cc3)NC(=O)[C@H](Cc3ccc(C(=O)c4ccccc4)cc3)NC2=O)c1 (stereo partly drawn) [Example 5031] ({CH2CO}-[Ala(morpholin-4-yl)]Y(Carboxymethyl)D[Phe(3-Me)][Bpa][Bip]Q[NMeA][dL][Dab][Cha]V[Orn][ξC][Dab]-NH2; thioether N-14) | 0.0087 | 0.0068 |  |  |
| Cc1cccc(C[C@@H]2NC(=O)[C@H](CC(=O)NS(C)(=O)=O)NC(=O)[C@H](Cc3ccc(OCC(=O)O)cc3)NC(=O)[C@H](CN3CCOCC3)NC(=O)CSC[C@@H](C(=O)N[C@@H](CCN)C(N)=O)NC(=O)[C@H](CCCN)NC(=O)[C@H](C(C)C)NC(=O)[C@H](CC3CCCCC3)NC(=O)[C@H](CCN)NC(=O)[C@@H](CC(C)C)NC(=O)[C@H](C)N(C)C(=O)[C@H](Cc3ccc(C(=O)O)cc3)NC(=O)[C@H](Cc3ccc(-c4ccccc4)cc3)NC(=O)[C@H](Cc3ccc(C(=O)O)cc3)NC2=O)c1 [Example 5046] ({CH2CO}-[Ala(morpholin-4-yl)]Y(Carboxymethyl)[X5][Phe(3-Me)][Phe(4-COOH)][Bip][Phe(4-COOH)][NMeA][dL][Dab][Cha]V[Orn]C[Dab]-NH2; thioether N-14) | 0.514 | 0.517 |  |  |
| Cc1cccc(C[C@@H]2NC(=O)[C@H](CC(=O)O)NC(=O)[C@H](Cc3ccc(OCC(=O)O)cc3)NC(=O)[C@H](CN3CCOCC3)NC(=O)CSC[C@@H](C(=O)N[C@@H](CCN)C(N)=O)NC(=O)[C@H](CCCN)NC(=O)[C@H](C(C)C)NC(=O)[C@H](Cc3cccc(N)c3)NC(=O)[C@H](CCN)NC(=O)[C@@H](CC(C)C)NC(=O)[C@H](C)N(C)C(=O)[C@H](CCC(N)=O)NC(=O)[C@H](Cc3ccc(-c4ccccc4)cc3)NC(=O)[C@H](Cc3ccc(C(=O)O)cc3)NC2=O)c1 [Example 5040] ({CH2CO}-[Ala(morpholin-4-yl)]Y(Carboxymethyl)D[Phe(3-Me)][Phe(4-COOH)][Bip]Q[NMeA][dL][Dab][Phe(3-NH2)]V[Orn]C[Dab]-NH2; thioether N-14) | 0.0159 | 0.0146 |  |  |
| CCCC[C@@H]1NC(=O)CSC[C@@H](C(=O)N[C@@H](CCN)C(N)=O)NC(=O)[C@H](CO)NC(=O)[C@H](C(C)(C)O)NC(=O)[C@H](CC2CCCCC2)NC(=O)[C@H](CCN)NC(=O)[C@@H](CC(C)C)NC(=O)[C@H](C)N(C)C(=O)[C@H](Cc2ccc(C(N)=O)cc2)NC(=O)[C@H](Cc2ccc(-c3ccccc3)cc2)NC(=O)[C@H](Cc2ccc(OCC(=O)O)cc2)NC(=O)[C@H](Cc2cccc(C)c2)NC(=O)[C@H](CC(=O)O)NC(=O)[C@H](Cc2ccc(OCC(=O)O)cc2)NC1=O [Example 5065] ({CH2CO}-[Nle]Y(Carboxymethyl)D[Phe(3-Me)]Y(Carboxymethyl)[Bip][Phe(4-CONH2)][NMeA][dL][Dab][Cha][Val(3-OH)]SC[Dab]-NH2; thioether N-14) | 0.0077 | 0.006 |  |  |
